Test results from patent publication US8168651B2, “Protein kinase modulators” (Cylene Pharmaceuticals, Inc., priority 2008, dated 2012).

Legend:
recombinant human PIM1 = recombinant human PIM1 (Homo sapiens (Human), UniProt P11309); assay: PIM-1 kinase activity in cell-free in vitro assay; type: biochemical; settings: cell-free assay; for inhibition at 0.5 µM: 500 nM compound, read-out: PIM-1: % inh 500 nM
recombinant human CK2 = recombinant human CK2 (Homo sapiens (Human), UniProt P68400); assay: CK2 assay (cell-free, 33P-ATP filter plate); type: biochemical; settings: 500 nM compound, cell-free assay; read-out: CK2: % inh 500 nM
recombinant human CK2, sequence (P68400 whole entry): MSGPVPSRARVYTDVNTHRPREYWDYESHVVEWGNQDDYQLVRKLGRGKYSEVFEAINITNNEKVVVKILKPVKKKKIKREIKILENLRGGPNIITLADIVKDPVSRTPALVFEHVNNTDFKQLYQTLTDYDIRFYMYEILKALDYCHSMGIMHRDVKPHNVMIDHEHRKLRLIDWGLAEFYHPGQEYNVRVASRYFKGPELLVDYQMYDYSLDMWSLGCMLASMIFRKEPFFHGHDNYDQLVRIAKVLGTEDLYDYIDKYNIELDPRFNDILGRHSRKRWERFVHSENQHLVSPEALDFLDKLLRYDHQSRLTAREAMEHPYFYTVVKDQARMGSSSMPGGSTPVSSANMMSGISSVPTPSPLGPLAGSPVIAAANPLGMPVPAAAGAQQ
recombinant human CK2, sequence (P67870 whole entry partner): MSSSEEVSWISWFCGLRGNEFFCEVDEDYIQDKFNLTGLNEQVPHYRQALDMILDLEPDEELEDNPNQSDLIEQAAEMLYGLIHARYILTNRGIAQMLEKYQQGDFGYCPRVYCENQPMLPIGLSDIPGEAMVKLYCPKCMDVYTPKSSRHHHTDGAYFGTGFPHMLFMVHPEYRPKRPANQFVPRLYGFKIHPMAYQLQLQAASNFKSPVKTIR

K-562 = assay: Cell proliferation modulatory activity, K-562; type: cell-based; settings: Homo sapiens, K562; K-562 cells
[1] = test system: HCT-116 human colorectal carcinoma cells; assay: Cell-proliferation assay using Alamar Blue dye; type: cell-based; settings: Homo sapiens, HCT-116, second HCT-116 column (c8); read-out: HCT-116 (uM) cell proliferation modulatory activity;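 also: cells exposed to compound for about 4 days, then Alamar Blue added and dye fluorescence read after about 4 h, compared with medium-only control wells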
MV-4-11 = assay: Cell proliferation modulatory activity, MV-4-11; type: cell-based; settings: Homo sapiens, MV4-11; MV-4-11 cells

recombinant human PIM1, sequence (P11309 whole entry): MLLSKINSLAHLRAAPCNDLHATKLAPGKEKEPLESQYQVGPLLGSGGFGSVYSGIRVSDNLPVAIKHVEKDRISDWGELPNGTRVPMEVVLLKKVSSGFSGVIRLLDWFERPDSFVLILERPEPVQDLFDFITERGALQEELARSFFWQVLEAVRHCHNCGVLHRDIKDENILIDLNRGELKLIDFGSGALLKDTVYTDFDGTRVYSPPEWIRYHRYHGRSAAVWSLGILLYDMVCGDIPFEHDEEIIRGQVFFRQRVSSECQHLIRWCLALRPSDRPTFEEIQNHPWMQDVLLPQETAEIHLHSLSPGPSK

inhibition at 0.5 µM (recombinant human PIM1)	inhibition at 0.5 µM (recombinant human CK2)	IC50 (K-562)	IC50 [1]	IC50 (MV-4-11)	IC50 (recombinant human PIM1)	Structure (SMILES)
46.6%	72.4%	> 10 µM	> 10 µM	> 10 µM		C#Cc1cccc(Nc2nc3cc(C(=O)O)ccc3c3ccncc23)c1
84.1%	59.8%	> 10 µM	> 10 µM	> 10 µM	0.118 µM	CCN1CCC[C@H]1CNc1nc2cc(-c3nnn[nH]3)ccc2c2sccc12
59.3%	98.5%	> 10 µM	> 10 µM	> 10 µM	0.311 µM	COc1ccc(Nc2nc3cc(C(=O)O)ccc3c3cnccc23)cc1OC
36.2%	37.1%	> 10 µM	1.87 µM	2.82 µM		N#Cc1ccc2c(c1)nc(NCCC1CCCN1)c1ccsc12 (centres unmarked)
59.1%	-8.22%	> 10 µM	3.44 µM	7.52 µM	1.03 µM	CN1CCC(Nc2nc3cc(C#N)ccc3c3sccc23)CC1
34.7%	25.5%	> 10 µM	> 10 µM	> 10 µM		O=C(O)c1ccc2c(c1)nc(Nc1ccccc1)c1cccnc12
-26.7%	-0.336%	> 10 µM	> 10 µM	> 10 µM		N#Cc1ccc2c(c1)[nH]c(=O)c1cscc12
-33.2%	-2.65%	> 10 µM	> 10 µM	> 10 µM		N#Cc1ccc2c(c1)nc(Nc1cccc(C(F)(F)F)c1)c1cscc12
64.7%	97.5%	> 10 µM	> 10 µM	> 10 µM	0.321 µM	O=C(O)c1ccc2c(c1)nc(Nc1cccc(CO)c1)c1ccncc12
74.8%	101%	> 10 µM	> 10 µM	> 10 µM	0.16 µM	NC(=O)c1cccc(Nc2nc3cc(C(=O)O)ccc3c3cnccc23)c1
-3.15%	64.1%	1.87 µM	0.511 µM	1.07 µM		CN(C)CCN(C)c1nc2cc(C#N)ccc2c2sccc12
-6.51%	23.1%	> 10 µM	> 10 µM	> 10 µM		FC(F)(F)c1cccc(Nc2nc3cc(-c4nnn[nH]4)ccc3c3cscc23)c1
-23.8%	-4.69%	> 10 µM	> 10 µM	> 10 µM		N#Cc1ccc2c(c1)nc(NCc1ccc(C(N)=O)cc1)c1ccsc12
13.7%	1.39%	1.89 µM	2.34 µM	> 10 µM		CN(C)CCNc1nc2cc(C(=O)NC3CC3)ccc2c2sccc12
-13%	-22.4%	> 10 µM	> 10 µM	> 10 µM		CC(C)(C)OC(=O)N1CCCC1CCNc1nc2cc(C#N)ccc2c2sccc12 (centres unmarked)
-34.6%	9.01%	> 10 µM	9.97 µM	2.83 µM		COC(=O)c1ccc2c(c1)nc(NCCn1cccc1)c1ccncc12
-11.2%	0.642%	> 10 µM	> 10 µM	> 10 µM		N#Cc1ccc2c(c1)nc(N1CCC(c3cccnc3)C1)c1ccsc12 (centres unmarked)
85%	99.2%	> 10 µM	> 10 µM	> 10 µM	0.093 µM	NC(=O)c1cc(F)cc(Nc2nc3cc(C(=O)O)ccc3c3cnccc23)c1

inhibition at 0.5 µM (recombinant human PIM1)	inhibition at 0.5 µM (recombinant human CK2)	IC50 (K-562)	IC50 [1]	IC50 (MV-4-11)	IC50 (recombinant human PIM1)	Structure (SMILES)
11%	7.66%	> 10 µM	> 10 µM	> 10 µM		N#Cc1ccc2c(c1)nc(N1CCN(c3ccccn3)CC1)c1ccsc12
10.8%	1.69%	> 10 µM	> 10 µM	> 10 µM		O=C(O)c1ccc2c(c1)nc(Nc1ccc(F)c(Cl)c1)c1cnccc12
-28.6%	-20.1%	8.04 µM	> 10 µM	> 10 µM		N#Cc1ccc2c(c1)nc(Nc1cccc(F)c1)c1cscc12
-25.6%	-22.3%	6.07 µM	> 10 µM	> 10 µM		N#Cc1ccc2c(c1)nc(NCCn1cccc1)c1ccsc12
81.1%	37.1%	> 10 µM	> 10 µM	> 10 µM	0.313 µM	c1cc2c(NCCN3CCCCC3)nc3cc(-c4nnn[nH]4)ccc3c2s1
55.4%	35.8%	> 10 µM	> 10 µM	> 10 µM	0.746 µM	O=C(O)c1ccc2c(c1)nc(Nc1cccc(F)c1)c1cnccc12
-14.7%	-35.2%	> 10 µM	> 10 µM	> 10 µM		CC(C)(C)OC(=O)N1CCCC1CNc1nc2cc(C#N)ccc2c2sccc12 (centres unmarked)
5.73%	8.24%	> 10 µM	> 10 µM	0.535 µM		CNC(=O)c1ccc2c(c1)nc(NCCN(C)C)c1ccsc12
-4.59%	85.3%	> 10 µM	> 10 µM	> 10 µM		C#Cc1cccc(Nc2nc3cc(C(=O)O)ccc3c3nccnc23)c1
60.8%	98.5%	> 10 µM	> 10 µM	7.01 µM	0.402 µM	CC(C)OCCCNc1nc2cc(C(=O)O)ccc2c2cnccc12
94.6%	101%	> 10 µM	> 10 µM	> 10 µM	0.096 µM	N#Cc1cc(F)cc(Nc2nc3cc(C(=O)O)ccc3c3cnccc23)c1
-0.602%	36.5%	> 10 µM	> 10 µM	> 10 µM		O=C(O)c1ccc2c(c1)nc(Nc1ccc(F)c(Cl)c1)c1nccnc12
34.9%	77.5%	> 10 µM	> 10 µM	> 10 µM		C#Cc1cccc(Nc2nc3cc(C(=O)O)ccc3c3ncccc23)c1
22.1%	19.6%	> 10 µM	> 10 µM	> 10 µM		O=C(O)c1ccc2c(c1)nc(Nc1ccc(F)c(Cl)c1)c1cccnc12
32.7%	-5.33%	> 10 µM	> 10 µM	> 10 µM		CC1(C)CC(Nc2nc3cc(-c4nnn[nH]4)ccc3c3sccc23)CC(C)(C)N1
8.04%	-4.51%	> 10 µM	> 10 µM	> 10 µM		N#Cc1ccc2c(c1)nc(N1CCNC(=O)C1)c1ccsc12
12.1%	-7.27%	0.719 µM	0.704 µM	0.588 µM		CN(C)CCNc1nc2cc(C#N)ccc2c2sc(Br)cc12
